Consider two compounds from article PMC3600304, “Inhibitors of Fatty Acid Synthesis Induce PPARα-Regulated Fatty Acid β-Oxidative Genes: Synergistic Roles of L-FABP and Glucose” (PPAR Research, 2013).

In experiment [1] the test system is mouse primary hepatocytes. As to the kind of experiment: Hepatocyte unesterified (free) LCFA determination. The format is cell-based. Particulars: normal physiological glucose (6 mM), inhibitor 10 μg/mL. As to the method: (§1) Mouse hepatocytes were isolated from livers of male wild-type and L-FABP null mice as described. To study the effect of TOFA and C75 at different glucose levels, mouse hepatocytes were cultured overnight with DMEM/F-12 supplemented with 5% FBS. Cells were incubated with glucose-free DMEM supplemented with fatty acid-free BSA (40 μM), 100 nM insulin, 10 nM dexamethasone, and without (no inhibitor) or with the de novo fatty acid synthesis inhibitors C75 or TOFA (10 μg/mL) for 30 min (1 mL/well). Cells were incubated further for 5 hr with 6 or 20 mM glucose without or with the inhibitors.
Cultured mouse hepatocytes were plated 4 × 10^5 cells per well in 12-well tissue culture plates. After incubation with TOFA or C75 at different glucose levels as described previously, hepatocytes were washed with cold PBS 4x, scraped with cold PBS (with protease inhibitor), and homogenized with a probe sonicator (Sonic Dismembrator 550, Fisher Scientific, Waltham, MA, USA). A 20 μL sample was saved for protein analysis using the Bio-Rad protein assay reagent, (Bio-Rad, Hercules, CA, USA). […]
The LCFA content of each sample was measured with the Free Fatty Acid Quantification Kit from BioVision, Inc. (Mountain View, California, USA) according to manufacturer's instructions, using a standard of palmitic acid included in the kit. […]

The next experiment deals with T1, recombinant rat L-FABP (Rattus norvegicus, UniProt P02692).
T1 construct: made in house
T1 sequence (P02692 1-127): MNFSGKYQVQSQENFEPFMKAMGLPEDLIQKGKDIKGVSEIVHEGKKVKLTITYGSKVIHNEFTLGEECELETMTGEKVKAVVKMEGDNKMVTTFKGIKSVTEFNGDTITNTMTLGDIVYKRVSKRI
Nature of the experiment: L-FABP secondary structure by circular dichroism (CD). Particulars: L-FABP 1 μM, ligand 10 μM. The protocol: Circular dichroism (CD) spectra were obtained utilizing a JASCO J-815 CD spectrometer (JASCO Analytical Instruments, Easton, MD, USA). Each sample for CD analysis contained recombinant rat L-FABP (1 μM) in 10 mM potassium phosphate (pH 7.4) with or without ligand (10 μM). Samples were scanned from 190 to 250 nm using the following conditions: step resolution, 1 nm; bandwidth, 2 nm; sensitivity, 10 mdeg; scan rate, 50 nm/min; and time constant, 1 s. For each measurement, 10 scans were averaged, background-subtracted, smoothed using the Means-Movement smoothing method (convolution width, 5) and converted to mean residue molar ellipticity utilizing the Spectra Manager Version 2 software as supplied by the instrument manufacturer (Spectra Analysis Version 2.03.04, Build 5). The percentage composition of α-helices (regular, distorted, total), β-sheets (regular, distorted, total), turns, and unordered structures was determined utilizing the CDPro program as supplied by the instrument manufacturer using the SDP48 reference set (soluble + denatured protein). This program allows the percentage calculation of various secondary structures by three different methods: CDSSTR, CONTIN, and SELCON3. Statistical analysis was performed by one-way analysis of variance (ANOVA) combined with the Newman-Keuls multiple-comparisons posttest (GraphPad Prism Version 3.03, San Diego, CA, USA).
A general note: CD spectra are sensitive to the conformation of chiral molecules.

The test system of experiment [2] is mouse primary hepatocytes. As to the kind of experiment: Hepatocyte cytosolic glucose level. The format is cell-based. The conditions noted are these: for Cytosolic glucose / Fold increase of cytosolic glucose versus no inhibitor: inhibitor 10 μg/mL; for Fold increase of cytosolic glucose by inhibitor: high extracellular glucose (20 mM); for Fold increase of cytosolic glucose with increasing glucose from 6 to 20 mM: in the presence of inhibitor 10 μg/mL. As to the method: as §1
Hepatocytes were plated 2 × 10^5 per well in 12-well tissue culture plates (Becton Dickinson and Company, Franklin Lakes, NJ, USA). After incubation with culture medium containing TOFA or C75 with increasing glucose level as described previously, hepatocytes were washed quickly with a cold solution of MgCl2 (100 mM) with 0.1 mM phloretin [46]. Cells were scraped from the dishes with PBS plus protease inhibitor, and cells were broken open with a probe sonicator (Sonic Dismembrator 550, Fisher Scientific, Waltham, MA, USA). Samples were sedimented at 10,000 g, 4°C for 20 min. The supernatant was used for glucose analysis with the Amplite Glucose Quantitation Kit (AAT Bioquest, Inc. Sunnyvale, CA, USA) as instructed by the manufacturer. The number of cultured primary hepatocytes in each sample was calculated based on amount of protein (Bradford Assay, Sigma, St. Louis, MO, USA) compared with reference samples with a known number of hepatocytes. Cytosolic glucose concentration was calculated using 7.4 × 10^−12 liter/cell as volume of the hepatocytes.

The structures appear in SMILES notation.

In the case of `C=C1C(=O)OC(CCCCCCCC)C1C(=O)O` (stereo not drawn) [C75, 4-methylene-2-octyl-5-oxotetrahydrofuran-3-carboxylic acid], in experiment [1], the “Unesterified fatty acid level” value was “Neither TOFA nor C75 significantly impacted”. For the same compound, at recombinant rat L-FABP, the “Effect on L-FABP secondary structure (overall)” value was “did not alter”. Besides, in experiment [2] (6 mM glucose in medium), the Cytosolic glucose stood at 4 mM and the “Fold increase of cytosolic glucose versus no inhibitor” value was ~ 2 fold. The compound further registered a Cytosolic glucose in experiment [2] (20 mM glucose in medium) of 13 mM. Further, in experiment [2], the “Fold increase of cytosolic glucose by inhibitor” value was roughly 2 fold and the “Fold increase of cytosolic glucose with increasing glucose from 6 to 20 mM” value is recorded as roughly 4 fold.
Consider `CCCCCCCCCCCCCCOc1ccc(C(=O)O)o1` [TOFA, 5-tetradecyloxy-2-furancarboxylic acid], for which the “Unesterified fatty acid level” value in experiment [1] is given as “Neither TOFA nor C75 significantly impacted”. Also, at recombinant rat L-FABP, the “Effect on L-FABP secondary structure (overall)” value was “significantly altered”, the “Effect on proportion of all types of β-sheet of L-FABP” value is reported as “increased”, the “Effect on proportion of α-helix of L-FABP” value was “did not alter” and the “Effect on turn structure of L-FABP” value is “decreased”. Also, the “Effect on unordered structure of L-FABP” value at recombinant rat L-FABP is recorded as “did not alter”. Besides, in experiment [2] (6 mM glucose in medium), the Cytosolic glucose stood at 4 mM and the “Fold increase of cytosolic glucose versus no inhibitor” value was ~ 2 fold. Also, the Cytosolic glucose in experiment [2] (20 mM glucose in medium) amounted to 20 mM. In experiment [2], the “Fold increase of cytosolic glucose by inhibitor” value is roughly 2 fold and the “Fold increase of cytosolic glucose with increasing glucose from 6 to 20 mM” value is listed as roughly 5 fold.
